How the values were obtained:
Assay type in all cases: cell-based, mice
iNOS = assay: Neuroinflammation in vitro model, organotypic cerebellar culture challenged with LPS, real-time PCR; conditions: G79 100 ng/ml pre-treatment; 24 h after the challenge with LPS
Description: Neonates mice (day 8 after birth (P8)) were decapitated after anaesthetic IP injection and whole brains were removed aseptically. Cerebellum was separated from the rest of the brain and placed on a metal vibratome plate. Once the cerebellum was attached to the surface of the plate, 400 μm sagittal sections were cut using the vibratome. The slices were then transferred with a plastic Pasteur pipette to a cell culture plate containing an organotypic culture medium (5% CO2 in 50% basal medium with Earle's salt, 25% Hank's buffered salt solution, 25% inactivated horse serum, 5 mg/ml glucose, 0.25 mM L-glutamine and 25 μg/ml penicillin/streptomycin). After separating and isolating each slice, the cerebellar slices were then transferred to 6-well plates (3 slices for each well) containing a 30 mm culture plate insert with 0.4 μm pores (Millipore) and 1 ml full culture medium, pre-conditioned by incubation for at least 2 hours at 37° C., and 5% CO2 was added into each well below the insert. […]
Organotypic slices collected from the LPS stimulation experiment were homogenized in RNA lysis buffer. […] Primers and target-specific fluorescence-labeled TaqMan probes were purchased from Applied Biosystems (TaqMan Gene Expression assays). […] The expression of the gene tested was quantified relative to the level of the housekeeping gene GAPDH.

IL-1β = assay: Neuroinflammation in vitro model, organotypic cerebellar culture challenged with LPS, ELISA; conditions: G79 100 ng/ml pre-treatment; LPS 15 μg/ml
Description: (§1) Neonates mice (day 8 after birth (P8)) were decapitated after anaesthetic IP injection and whole brains were removed aseptically. Cerebellum was separated from the rest of the brain and placed on a metal vibratome plate. Once the cerebellum was attached to the surface of the plate, 400 μm sagittal sections were cut using the vibratome. The slices were then transferred with a plastic Pasteur pipette to a cell culture plate containing an organotypic culture medium (5% CO2 in 50% basal medium with Earle's salt, 25% Hank's buffered salt solution, 25% inactivated horse serum, 5 mg/ml glucose, 0.25 mM L-glutamine and 25 μg/ml penicillin/streptomycin). After separating and isolating each slice, the cerebellar slices were then transferred to 6-well plates (3 slices for each well) containing a 30 mm culture plate insert with 0.4 μm pores (Millipore) and 1 ml full culture medium, pre-conditioned by incubation for at least 2 hours at 37° C., and 5% CO2 was added into each well below the insert. The six-well plates were kept at 37° C. and under 5% CO2, and half the medium was replaced every 2 days. All the experiments were performed after 1 week of culture in such conditions.
(§2) After one week of organotypic cerebellum culture, the medium of each well was replaced with fresh medium and G79 (100 ng/ml) or placebo (physiologic solution) was added to the wells and kept in incubation for 1 hour. […]

TNFα = assay: as above; conditions: G79 100 ng/ml pre-treatment; LPS 15 μg/ml
Description: as §1, §2

SMILES: CC(C)CN(CC(=O)N(CCCN1CCCC1=O)CC(N)=O)C(=O)CNCCc1ccccc1F [Compound G79, [N-(2-(2′-Fluorophenyl)ethyl)glycyl]-[N-(2-methylpropyl)glycyl]-N-[3-(2′-oxopyrrolidinyl)propyl]glycinamide]
- expression of iNOS compared to placebo pre-treated samples (iNOS): decrease in the expression of iNOS
- release of IL-1β (IL-1β): did not affect the release of IL-1β
- production of TNFα compared to placebo (TNFα): reduced at 6 and 12 hours
